26 molecules from patent publication US12281299B2, “Control of nitrogen fixation in rhizobia that associate with cereals” (Massachusetts Institute of Technology, priority 2019, dated 2025) can be followed below.

The first data set has as its system R. sp. IRBG74. Nature of the data set: Genetic part characterization for Rhizobia (promoters, RBSs, terminators, inducible systems; fluorescence reporter, flow cytometry). It is filed as cell-based, Rhizobium sp. Particulars: synthetic RBS strength in R. sp. IRBG74; plasmid pMR-40, IPTG-inducible system, 1 mM IPTG induction. From the text: Construction and characterization genetic parts for Rhizobia. Genetic part libraries were built on a pBBR1-ori plasmid pMR-1 using Gibson assembly (New England Biolabs, Cat # E2611). The fluorescence proteins, GFPmut3b and mRFP1 were used as reporters. The Anderson promoter library (Anderson, J. et al. BglBricks: A flexible standard for biological part assembly. 4, 1 (2010)) on the BioBricks Registry were utilized for the characterization of constitutive promoters (FIGS. 11A-11C). To characterize inducible promoters, a regulator protein is constitutively expressed by the PlacIq promoter, and GFP expression is driven by a cognate inducible promoter from the opposite direction, facilitating replacement of the reporter with gene of interest (e.g., T7 RNAP and nifA) and transfer of the controller unit across different plasmid backbones for diverse microbes. The following combinations of cognate regulators and inducible promoters were characterized. IPTG inducible LacI-A1lacO1, DAPG inducible PhlF-PPhl, aTc inducible TetR-PTet, 3OC6HSL inducible LuxR-PLux, salicylic acid inducible NahR-PSal, and cuminic acid inducible CymR-PCym systems were optimized for R. sp. IRBG74 (FIG. 14). Opine inducible OccR-Pocc, and nopaline inducible NocR-Pnoc systems were optimized for A. caulinodans (FIGS. 20A-20F and Tables 9 and 10). For RBS characterization, an IPTG-inducible GFP expression plasmid pMR-40 was used and GFP was expressed to the highest levels with 1 mM IPTG (FIGS. 12A-12B). RBS library for GFP was designed using the RBS library calculator at the highest-resolution mode, and the 3′ end of the 16S rRNA sequences were adjusted according to the species (3′-ACCTCCTTC-5′ for R. sp. IRBG74). Terminators for T7 RNAP were characterized by placing a terminator between two fluorescence reporters expressed from a single T7 wild-type promoter located upstream of the first fluorescence protein GFP. The expression of the two fluorescence proteins is enabled by the controller strain MR18 encoding the IPTG-inducible T7 RNAP system by 1 mM IPTG (FIGS. 13A-13B). The terminator strength (Ts) was determined by normalizing fluorescence levels of a terminator construct by a reference construct pMR-66 where a 40 bp spacer was placed between the reporters. All genetic parts for Rhizobia were characterized as follows.
For orientation: Flow cytometry measures light scatter and fluorescence of single cells or particles in a stream.
Turning to “RBST-22 (DNA TAACAATTTCACACATCTAGAGCTAATCTTCGCGTACTAAGTAGGCAAGTAATG; chemistry not fully specified)”, the “Strength (GFP, au)” value was 130 au.

On to “RBST-12 (DNA TAACAATTTCACACATCTAGAGCTAATCATCGCGTACTAAAAAGGCAAGTAATG; chemistry not fully specified)”, for which the “Strength (GFP, au)” value is 1138 au.

“RBST-15 (DNA TAACAATTTCACACATCTAGAGCTAATCATCTCGTACTAAATAGGCAAGTAATG; chemistry not fully specified)”: the “Strength (GFP, au)” value is recorded as 648.5 au.

“RB5r7 (DNA TAACAATTTCACACATCTAGAGCTAATCTTCGCGTACTAAAGAGGCAAGTAATG; chemistry not fully specified)”: the “Strength (GFP, au)” value is recorded as 2418.5 au.

As for “RB5r8 (DNA TAACAATTTCACACATCTAGAGCTAATCATCTCGTACTCAGGAGGCAAGTAATG; chemistry not fully specified)”, the “Strength (GFP, au)” value is given as 1882.5 au.

With “RB5r6 (DNA TAACAATTTCACACATCTAGAGCTAATCATCGCGTACTCAAGAGGCAAGTAATG; chemistry not fully specified)”, the “Strength (GFP, au)” value was found to be 2614.5 au.

Turning to “RBST-18 (DNA TAACAATTTCACACATCTAGAGCTAATCATCGCGTACTCAATAGGCCAGTAATG; chemistry not fully specified)”, the “Strength (GFP, au)” value came to 305.5 au.

Turning to “RBST-23 (DNA TAACAATTTCACACATCTAGAGCTAATCTTCGCGTACTAATTAGGCAAGTAATG; chemistry not fully specified)”, the “Strength (GFP, au)” value turned out to be 84.4 au.

As for “RBST-29 (DNA TAACAATTTCACACATCTAGAGCTAATCTTCGCGTACTAAAAACGCAAGTAATG; chemistry not fully specified)”, the “Strength (GFP, au)” value was 4.6 au.

Regarding “RB5r5 (DNA TAACAATTTCACACATCTAGAGCTAATCATCGCGTACTAAGGAGGCAAGTAATG; chemistry not fully specified)”, the “Strength (GFP, au)” value came out at 3560 au.

For “RB5r2 (DNA ATTTCACACATCTAGAGCTAATCATCGCGTACTCAGGAGGCAAGTAATG; chemistry not fully specified)”, the “Strength (GFP, au)” value came out at 7181.5 au.

Consider “RB5r1 (DNA ATTTCACACATCTAGAGCTAATCATCTCGTACTAAAGAGGAGAAATTAACCATG; chemistry not fully specified)”, for which the “Strength (GFP, au)” value is reported as 8242 au.

For the molecule “RBST-19 (DNA TAACAATTTCACACATCTAGAGCTAATCATCGCGTACTAAGTAGGCAAGTAATG; chemistry not fully specified)”, the “Strength (GFP, au)” value came to 242 au.

On to “RBST-14 (DNA TAACAATTTCACACATCTAGAGCTAATCTTCGCGTACTAAGAAGGCAAGTAATG; chemistry not fully specified)”, for which the “Strength (GFP, au)” value worked out at 632.5 au.

“RBST-27 (DNA TAACAATTTCACACATCTAGAGCTAATCATCGCGTACTAACTACGCAAGTAATG; chemistry not fully specified)”: the “Strength (GFP, au)” value was 12.2 au.

In the case of “RBST-28 (DNA TAACAATTTCACACATCTAGAGCTAATCTTCGCGTACTAAGAACGCAAGTAATG; chemistry not fully specified)”, the “Strength (GFP, au)” value turned out to be 13 au.

For “RBST-26 (DNA TAACAATTTCACACATCTAGAGCTAATCATCTCGTACTAAGCACGCAAGTAATG; chemistry not fully specified)”, the “Strength (GFP, au)” value is on record as 36 au.

For the molecule “RB5r3 (DNA ATTTCACACATCTAGAATTAAAGAGGAGAAATTAACCATG; chemistry not fully specified)”, the “Strength (GFP, au)” value turned out to be 6238.5 au.

Consider “RBST-31 (DNA TAACAATTTCACACATCTAGAGCTAATCTTCTCGTACTCATGACGCAAGTAATG; chemistry not fully specified)”, for which the “Strength (GFP, au)” value is 1.45 au.

As to “RBST-25 (DNA TAACAATTTCACACATCTAGAGCTAATCATCTCGTACTCAATAGGCAAGTAATG; chemistry not fully specified)”, the “Strength (GFP, au)” value is on record as 45.45 au.

With “RB5r4 (DNA TAACAATTTCACACATCTAGAGCTAATCATCTCGTACTAAAGAGGCAAGTAATG; chemistry not fully specified)”, the “Strength (GFP, au)” value amounted to 3618 au.

Turning to “RBST-10 (DNA TAACAATTTCACACATCTAGAGCTAATCATCGCGTACTAATGAGGCAAGTAATG; chemistry not fully specified)”, the “Strength (GFP, au)” value worked out at 1590 au.

On to “RBST-17 (DNA TAACAATTTCACACATCTAGAGCTAATCTTCTCGTACTAAAGAGGCAAGTAATG; chemistry not fully specified)”, for which the “Strength (GFP, au)” value came to 488 au.

The next data set has as its system A. caulinodans ORS571.
Assay: not given
Particulars: sensor controlling NifA(L94Q/D95Q)/RpoN expression in A. caulinodans. Format: cell-based, Azorhizobium caulinodans. As for the experimental part:
Nitrogenase assays (A. caulinodans and P. stutzeri). Cultures were initiated by inoculating a single colony into 0.2 mL of TY medium supplemented with appropriate antibiotics in 96-deepwell plates and grown overnight at 37° C. and 30° C. for A. caulinodans and P. stutzeri, respectively, 900 rpm in a Multitron incubator. 5 μl of overnight cultures was diluted into 500 μl of UMS medium with 30 mM lactate and 10 mM NH4Cl and appropriate antibiotics in 96-deepwell and incubated for 24 h at 37° C. and 30° C. for A. caulinodans and P. stutzeri, respectively, 900 rpm in a Multitron incubator. Cultures were diluted to an OD600 of 0.4 into 2 mL of UMS medium plus 30 mM lactate supplemented with appropriate antibiotics and an inducer (if necessary) in 10 mL glass vials with PTFE-silicone septa screw caps. Headspace in the vials was replaced with 99% argon plus 1% oxygen gas using a vacuum manifold. Acetylene was injected to 10% (vol/vol) into each culture vial to begin the reaction. The acetylene reduction was carried out for 20 h at 30° C. with shaking at 250 rpm, followed by quenching via the addition of 0.5 mL of 4 M NaOH to each vial.
Ethylene quantification. Ethylene production was analyzed by gas chromatography using an Agilent 7890A GC system (Agilent Technologies, Inc., CA USA) equipped with a PAL headspace autosampler and flame ionization detector as follows. An aliquot of 0.5 mL headspace preincubated to 35° C. for 30 s was injected and separated for 4 min on a GS-CarbonPLOT column (0.32 mm×30 m, 3 microns; Agilent) at 60° C. and a He flow rate of 1.8 mL/min. Detection occurred in a FID heated to 300° C. with a gas flow of 35 mL/min H2 and 400 mL/min air. Acetylene and ethylene were detected at 3.0 min and 3.7 min after injection, respectively. Ethylene production was quantified by integrating the 3.7 min peak using Agilent GC/MSD ChemStation Software.
For `O=C([O-])c1ccccc1O.[Na+]` [salicylic acid, Salicylic acid sodium salt], the “dynamic range of nitrogenase activity” value is listed as 1000 fold.

Consider `N=C(N)NCCCC(NC(CCC(=O)O)C(=O)O)C(=O)O` (centres unmarked) [nopaline, Nopaline], for which the “dynamic range of nitrogenase activity” value turned out to be 412 fold.

Take `CC(NC(CCCNC(=N)N)C(=O)O)C(=O)O` (centres unmarked) [octopine, Octopine]: the “nitrogenase activity higher than the wild-type” value worked out at 40%.
